Read-outs that look alike come from different tables or passages of the source.
Assays:
[1] = biological target: T1, human aromatase (Homo sapiens, UniProt P11511); test: In vitro inhibition of human placental aromatase (3H2O release from 1,2[3H]-androstene-3,17-dione); type: biochemical; details: for IC10: 40 min, read-out: AROMATASE IC-10; for IC90: read-out: AROMATASE IC-90
T1 construct: The enzyme preparation was used without further purification; from tissue; host or cells: human placenta, microsomal fraction (100000×g precipitate)
T1 sequence (P11511 1-503): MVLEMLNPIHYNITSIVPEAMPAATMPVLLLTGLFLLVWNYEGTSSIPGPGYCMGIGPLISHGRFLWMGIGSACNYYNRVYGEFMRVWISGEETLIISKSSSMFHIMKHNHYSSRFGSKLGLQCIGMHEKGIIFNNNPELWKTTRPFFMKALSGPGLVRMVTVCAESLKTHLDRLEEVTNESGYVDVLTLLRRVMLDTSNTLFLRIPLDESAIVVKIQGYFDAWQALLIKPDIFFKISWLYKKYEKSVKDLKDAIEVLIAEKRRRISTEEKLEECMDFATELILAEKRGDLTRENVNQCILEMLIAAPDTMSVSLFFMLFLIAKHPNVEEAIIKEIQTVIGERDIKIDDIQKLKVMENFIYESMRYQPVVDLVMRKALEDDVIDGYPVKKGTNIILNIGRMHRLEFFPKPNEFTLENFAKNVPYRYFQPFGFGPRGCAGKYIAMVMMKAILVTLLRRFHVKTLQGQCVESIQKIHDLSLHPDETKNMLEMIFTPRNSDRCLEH
Protocol: Human aromatase enzyme was used. The enzyme was prepared from human placenta, which is rich in the enzyme. Microsomal fraction (100000×g precipitate) was prepared by centrifugation. The enzyme preparation was used without further purification. Test compounds listed in Table 1 were added with 100000 dpm of 1,2[^3 H]-androstene-3,17-dione and NADPH generating system. The concentrations of the test compounds were 0,001; 0,01; 0,1 and 1,0 mM. The incubation was carried out at 37° C. for 40 min. Aromatization of 1,2[^3 H]-androstene-3,17-dione results in the production of ^3 H2 O. The tritiated water and the tritiated substrate are easily separated by a Sep-Pak® minicolumn, which absorbs the steroid but allows free water elution. Radioactivity was counted by a liquid scintillation counter. Aromatase inhibition was evaluated by comparing the ^3 H2 O-radioactivity of inhibitor treated samples to controls containing no inhibitor. IC-10, IC-50 and IC-90 values were calculated as concentrations which inhibited the enzyme activity 10%, 50% and 90%, respectively.

[2] = test system: desmolase; test: Cholesterol side-chain cleavage (desmolase, P450 scc) inhibition; details: read-out: DESMOLASE IC-50; Table 2; 30 min at 37° C.; human placenta or bovine adrenals as enzyme source, table title says human
[3] = test system: α2; details: described in EP-194984; cited from earlier work

Row | SMILES | IC10 [1] [µM] | IC50 ([1]; read-out: AROMATASE IC-50) [µM] | IC90 [1] [µM] | also measured
1 | OC(CCc1c[nH]cn1)(c1ccccc1)c1ccccc1 [Compound 3, 4-(3,3-diphenyl-3-hydroxypropyl)-1H-imidazole] | 4 | 70 | 1000 | –
2 | Fc1ccc(C(CCc2c[nH]cn2)c2ccc(F)cc2)cc1 [Compound 27, 4-[3,3-bis(4-fluorophenyl)propyl]-1H-imidazole] | – | – | – | IC50 [2]: 30 µM
3 | c1ccc(C(Cc2c[nH]cn2)c2ccccc2)cc1 [4-(2,2-diphenylethyl)-1H-imidazole] | – | – | – | α2-blocking properties [3]: selective α2 -blocking properties
4 | C(Cc1c[nH]cn1)=C(c1ccccc1)c1ccccc1 [Compound 4] | < 1 | – | 100 | IC50 [1]: 6 µM
5 | Fc1cccc(C(CCc2c[nH]cn2)c2cccc(F)c2)c1 [Compound 19, 4-[3,3-bis(3-fluorophenyl)propyl]-1H-imidazole] | – | – | – | IC50 [2]: 20 µM
6 | c1ccc(Cn2cncc2CCC(c2ccccc2)c2ccccc2)cc1 [Compound 10, 1-benzyl-5-(3,3-diphenylpropyl)-1H-imidazole] | ~0.6 | 4 | 100 | –
7 | COc1cccc(C(CCc2cncn2Cc2ccccc2)c2cccc(OC)c2)c1 [Compound 15, 1-benzyl-5-[3,3-bis(3-methoxyphenyl)propyl]-1H-imidazole] | – | 4 | – | –
8 | Cc1cccc(C(CCc2c[nH]cn2)c2cccc(C)c2)c1 [Compound 11, 4-[3,3-bis(3-methylphenyl)propyl]-1H-imidazole] | – | – | – | IC50 [2]: 29 µM
9 | COc1ccccc1C(CCc1c[nH]cn1)c1ccccc1OC [Compound 25, 4-[3,3-bis(2-methoxyphenyl)propyl]-1H-imidazole] | – | 8.6 | – | –
10 | c1ccc(CCC(CCc2cncn2Cc2ccccc2)c2ccccc2)cc1 (centres unmarked) [Compound 21, 1-benzyl-5-(3,5-diphenylpentyl)-1H-imidazole] | – | 17 | – | –
11 | Cc1ccc(C(CCc2c[nH]cn2)c2ccccc2)cc1 (centres unmarked) [Compound 24, 4-[3-(4-methylphenyl)-3-phenylpropyl]-1H-imidazole] | – | – | – | IC50 [2]: 50 µM
12 | Cc1ccc(C(CCc2c[nH]cn2)c2ccc(C)cc2)cc1 [Compound 18, 4-[3,3-bis(4-methylphenyl)propyl]-1H-imidazole] | – | – | – | IC50 [2]: 48 µM
13 | Cc1ccccc1C(=CCc1c[nH]cn1)c1ccccc1C [Compound 8] | 1.5 | – | > 1000 | IC50 [1]: 80 µM
14 | C(=CC(c1ccccc1)c1ccccc1)c1cncn1Cc1ccccc1 [Compound 28, 1-benzyl-5-(3,3-diphenylpropen-1-yl)-1H-imidazole] | – | 14 | – | –
15 | Cc1cc(C)cc(C(CCc2c[nH]cn2)c2cc(C)cc(C)c2)c1 [Compound 17, 4-[3,3-bis(3,5-dimethylphenyl)propyl]-1H-imidazole] | – | 130 | – | –
16 | OC(CCc1c[nH]cn1)(c1ccc(Cl)cc1)c1ccc(Cl)cc1 [Compound 2, 4-[3,3-bis(4-chlorophenyl)-3-hydroxypropyl]-1H-imidazole] | 4 | 60 | 1000 | –
17 | COc1cccc(C(=CCc2cncn2Cc2ccccc2)c2cccc(OC)c2)c1 [Compound 16] | – | – | – | IC50 [1]: 14 µM
18 | Cc1cccc(C(CCc2c[nH]cn2)c2cccc(C)c2C)c1C [Compound 14, 4-[3,3-bis(2,3-dimethylphenyl)propyl]-1H-imidazole] | – | 44 | – | –
19 | Cc1cccc(C(=CCc2c[nH]cn2)c2cccc(C)c2)c1 [Compound 12] | 1 | – | 1000 | IC50 [1]: 62 µM
20 | Cc1cccc(C)c1CCC(O)(CCc1c[nH]cn1)CCc1c(C)cccc1C [Compound 1, 4-[5-(2,6-dimethylphenyl)-3-hydroxy-3-(2,6-dimethylphenylethyl)pentyl]-1H-imidazole] | 20 | 1000 | > 1000 | –
21 | COc1cccc(C(CCc2c[nH]cn2)c2cccc(OC)c2)c1 [Compound 13, 4-[3,3-bis(3-methoxyphenyl)propyl]-1H-imidazole] | – | 3 | – | –
22 | Fc1ccc(C(CCc2c[nH]cn2)c2ccccc2)cc1 (centres unmarked) [Compound 26, 4-[3-(4-fluorophenyl)-3-phenylpropyl]-1H-imidazole] | – | – | – | IC50 [2]: 440 µM
23 | Clc1ccc(C(=CCc2c[nH]cn2)c2ccc(Cl)cc2)cc1 [Compound 7] | 2 | – | 600 | IC50 [1]: 35 µM
24 | C(Cc1cncn1Cc1ccccc1)=C(c1ccccc1)c1ccccc1 [Compound 20] | – | – | – | IC50 [1]: 50 µM
25 | COc1ccc(C(CCc2c[nH]cn2)c2ccc(OC)cc2)cc1 [Compound 22, 4-[3,3-bis(4-methoxyphenyl)propyl]-1H-imidazole] | – | – | – | IC50 [2]: 26 µM
26 | Cc1ccccc1C(O)(CCc1c[nH]cn1)c1ccccc1C [Compound 6, 4-[3,3-bis(2-methylphenyl)-3-hydroxpropyl]-1H-imidazole] | 15 | – | > 1000 | IC50 [1]: 300 µM

Reference: patent US5098923A, “Aromatase inhibiting 4(5)-imidazoles” (Farmos-Yhtyma Oy, priority 1987, dated 1992)
